Measured values from patent publication US20120252741A1, “NOVEL SEMI-SYNTHETIC GLYCOPEPTIDES AS ANTIBACTERIAL AGENTS” (priority 2008, published 2012).

Key:
Assay type in all cases: cell-based
[1] = test system: Staphylococcus epidermidis 835; test: MIC, broth microdilution, SE 835; settings: Staphylococcus epidermidis, 835; Table 2; in the presence of 0.002% Polysorbate 80; class symbols; read-out: MIC SE 835
Protocol: (§1) Antibacterial activity in vitro is investigated by broth microdilution method in Meuller-Hinton broth as recommended by NCCLS. All strains tested are clinical isolates either sensitive or resistant to natural glycopeptides. MIC values were determined using the CLSI-recommended broth microdilution procedure (Clinical and Laboratory Standards Institute, Methods for Dilution Antimicrobial Susceptibility Tests for Bacteria That Grow Aerobically; Approved Standard-Seventh Edition.). Automated liquid handlers (Multidrop 384, Labsystems, Helsinki, Finland; Biomek 2000 and Multimek 96, Beckman Coulter, Fullerton Calif.) were used to conduct serial dilutions and liquid transfers. The MIC value for vancomycin is given for comparison. The abbreviations for organisms tested are as follow: SA 100—Staphylococcus aureus 100 (ATCC 29213); SA 757—Staphylococcus aureus 757 (MRSA); SA 2012—Staphylococcus aureus 2012 (VISA); SE 835—Staphylococcus epidermidis 835; SE 831—Staphylococcus epidermidis 831 (MRSE); EFc 101—Enterococcus faecalis 101 (ATCC 29212); EFc 848—Enterococcus faecalis 848 (VRE, Van A); EFcm 800—Enterococcus faecium 800; EFcm 752—Enterococcus faecium 752 (VRE, Van A); SPNE 1195—Streptococcus pneumoniae 1195 (ATCC 49619); SPY 712—Streptococcus pyogenes 712.

[2] = test system: Enterococcus faecalis 101 (ATCC 29212); test: MIC, broth microdilution, EFc 101; settings: Enterococcus faecalis, ATCC29212; Table 2; in the presence of 0.002% Polysorbate 80; class symbols; read-out: MIC E FC 101
Protocol: as §1

[3] = test system: Enterococcus faecium 752 (VRE, Van A); test: MIC, broth microdilution, EFcm 752; settings: Table 2; VRE, Van A; in the presence of 0.002% Polysorbate 80; class symbols; read-out: MIC E FCM 752
Protocol: as §1

[4] = test system: Enterococcus faecalis 848 (VRE, Van A); test: MIC, broth microdilution, EFc 848; settings: Table 2; VRE, Van A; in the presence of 0.002% Polysorbate 80; class symbols; read-out: MIC E FC 848
Protocol: as §1

[5] = test system: Staphylococcus aureus 2012 (VISA); test: MIC, broth microdilution, SA 2012; settings: Table 2, in the presence of 0.002% Polysorbate 80, class symbols, read-out: MIC SA 2012
Protocol: as §1

[6] = test system: Streptococcus pyogenes 712; test: MIC, broth microdilution, SPY 712; settings: Streptococcus pyogenes, 712; Table 2; in the presence of 0.002% Polysorbate 80; class symbols; read-out: MIC S PYO 712
Protocol: as §1

[7] = test system: Staphylococcus aureus 100 (ATCC 29213); test: MIC, broth microdilution, SA 100; settings: Staphylococcus aureus, ATCC29213; Table 2; in the presence of 0.002% Polysorbate 80; class symbols; read-out: MIC SA 100
Protocol: as §1

[8] = test system: Staphylococcus aureus 757 (MRSA); test: MIC, broth microdilution, SA 757; settings: Table 2, in the presence of 0.002% Polysorbate 80, class symbols, read-out: MIC SA 757
Protocol: as §1

[9] = test system: Enterococcus faecium 800; test: MIC, broth microdilution, EFcm 800; settings: Enterococcus faecium, 800; Table 2; in the presence of 0.002% Polysorbate 80; class symbols; read-out: MIC E FCM 800
Protocol: as §1

[10] = test system: Staphylococcus epidermidis 831 (MRSE); test: MIC, broth microdilution, SE 831; settings: Staphylococcus epidermidis, Table 2, in the presence of 0.002% Polysorbate 80, class symbols, read-out: MIC SE 831
Protocol: as §1

[11] = test system: Streptococcus pneumoniae 1195 (ATCC 49619); test: MIC, broth microdilution, SPNE 1195; settings: Streptococcus pneumoniae, ATCC49619; Table 2; in the presence of 0.002% Polysorbate 80; class symbols; read-out: MIC S PNE 1195
Protocol: as §1

Row | MIC [1] [µg/mL] | MIC [2] [µg/mL] | MIC [3] [µg/mL] | MIC [4] [µg/mL] | MIC [5] [µg/mL] | MIC [6] [µg/mL] | MIC [7] [µg/mL] | MIC [8] [µg/mL] | MIC [9] [µg/mL] | MIC [10] [µg/mL] | MIC [11] [µg/mL] | SMILES
1 | 0.01 to 0.5 | 0.01 to 0.5 | 4 to 8 | > 16 | 1 to 2 | 0.01 to 0.5 | 0.01 to 0.5 | 0.01 to 0.5 | 0.01 to 0.5 | 0.01 to 0.5 | 0.01 to 0.5 | CNCCOc1ccc(C(=O)NC(=O)C[C@@H]2NC(=O)[C@H](NC(=O)[C@@H](CC(C)C)NC)[C@H](O)c3ccc(c(Cl)c3)Oc3cc4cc(c3O[C@@H]3O[C@H](CO)[C@@H](O)[C@H](O)[C@H]3O[C@H]3C[C@](C)(N)[C@H](O)[C@H](C)O3)Oc3ccc(cc3Cl)[C@@H](O)[C@@H]3NC(=O)[C@H](NC(=O)[C@@H]4NC2=O)c2ccc(O)c(c2)-c2c(O)cc(O)cc2[C@@H](C(=O)NC2C4CC5CC(C4)CC2C5)NC3=O)cc1OCCNC (stereo partly drawn) [Compound 152]
2 | 0.5 to 1 | 0.5 to 1 | 4 to 8 | > 16 | 0.5 to 1 | 0.01 to 0.5 | 0.5 to 1 | 0.5 to 1 | 0.01 to 0.5 | 0.01 to 0.5 | 0.5 to 1 | CN[C@H](CC(C)C)C(=O)N[C@H]1C(=O)N[C@@H](CC(=O)NC(=O)c2ccc(OCCN)c(OCCN)c2)C(=O)N[C@H]2C(=O)N[C@H]3C(=O)N[C@H](C(=O)N[C@H](C(=O)NC4C5CC6CC(C5)CC4C6)c4cc(O)cc(O)c4-c4cc3ccc4O)[C@H](O)c3ccc(c(Cl)c3)Oc3cc2cc(c3O[C@@H]2O[C@H](CO)[C@@H](O)[C@H](O)[C@H]2O)Oc2ccc(cc2Cl)[C@H]1O (stereo partly drawn) [Compound 159]
3 | 1 to 2 | 1 to 2 | 4 to 8 | > 16 | 1 to 2 | 0.01 to 0.5 | 1 to 2 | 1 to 2 | 0.5 to 1 | 0.01 to 0.5 | 0.5 to 1 | CN[C@H](CC(C)C)C(=O)N[C@H]1C(=O)N[C@@H](CC(=O)NC(=O)c2ccc(OCCCN)c(OCCCN)c2)C(=O)N[C@H]2C(=O)N[C@H]3C(=O)N[C@H](C(=O)N[C@H](C(=O)NC4C5CC6CC(C5)CC4C6)c4cc(O)cc(O)c4-c4cc3ccc4O)[C@H](O)c3ccc(c(Cl)c3)Oc3cc2cc(c3O[C@@H]2O[C@H](CO)[C@@H](O)[C@H](O)[C@H]2O)Oc2ccc(cc2Cl)[C@H]1O (stereo partly drawn) [Compound 163]
4 | 0.5 to 1 | 0.01 to 0.5 | 2 to 4 | > 16 | 1 to 2 | 0.01 to 0.5 | 0.01 to 0.5 | 0.01 to 0.5 | 0.01 to 0.5 | 0.01 to 0.5 | 0.01 to 0.5 | CN[C@H](CC(C)C)C(=O)N[C@H]1C(=O)N[C@@H](CC(=O)NC(=O)c2ccc(OCCN)c(OCCN)c2)C(=O)N[C@H]2C(=O)N[C@H]3C(=O)N[C@H](C(=O)N[C@H](C(=O)NC4C5CC6CC(C5)CC4C6)c4cc(O)cc(O)c4-c4cc3ccc4O)[C@H](O)c3ccc(c(Cl)c3)Oc3cc2cc(c3O[C@@H]2O[C@H](CO)[C@@H](O)[C@H](O)[C@H]2O[C@H]2C[C@](C)(N)[C@H](O)[C@H](C)O2)Oc2ccc(cc2Cl)[C@H]1O (stereo partly drawn) [Compound 165]
5 | 0.5 to 1 | 0.01 to 0.5 | 2 to 4 | > 16 | 1 to 2 | 0.01 to 0.5 | 0.01 to 0.5 | 0.01 to 0.5 | 0.01 to 0.5 | 0.01 to 0.5 | 0.01 to 0.5 | CN[C@H](CC(C)C)C(=O)N[C@H]1C(=O)N[C@@H](CC(=O)NC(=O)c2ccc(OCCCN)c(OCCCN)c2)C(=O)N[C@H]2C(=O)N[C@H]3C(=O)N[C@H](C(=O)N[C@H](C(=O)NC4C5CC6CC(C5)CC4C6)c4cc(O)cc(O)c4-c4cc3ccc4O)[C@H](O)c3ccc(c(Cl)c3)Oc3cc2cc(c3O[C@@H]2O[C@H](CO)[C@@H](O)[C@H](O)[C@H]2O[C@H]2C[C@](C)(N)[C@H](O)[C@H](C)O2)Oc2ccc(cc2Cl)[C@H]1O (stereo partly drawn) [Compound 166]

More lines, now with the values behind:

Row | SMILES | MIC [1] [µg/mL] | MIC [2] [µg/mL] | MIC [3] [µg/mL] | MIC [4] [µg/mL] | MIC [5] [µg/mL] | MIC [6] [µg/mL] | MIC [7] [µg/mL] | MIC [8] [µg/mL] | MIC [9] [µg/mL] | MIC [10] [µg/mL] | MIC [11] [µg/mL]
6 | CNCCOCc1cc(OCCNC)cc(C(=O)NC(=O)C[C@@H]2NC(=O)[C@H](NC(=O)[C@@H](CC(C)C)NC)[C@H](O)c3ccc(c(Cl)c3)Oc3cc4cc(c3O[C@@H]3O[C@H](CO)[C@@H](O)[C@H](O)[C@H]3O[C@H]3C[C@](C)(N)[C@H](O)[C@H](C)O3)Oc3ccc(cc3Cl)[C@@H](O)[C@@H]3NC(=O)[C@H](NC(=O)[C@@H]4NC2=O)c2ccc(O)c(c2)-c2c(O)cc(O)cc2[C@@H](C(=O)NC2C4CC5CC(C4)CC2C5)NC3=O)c1 (stereo partly drawn) [Compound 153] | 0.01 to 0.5 | 0.01 to 0.5 | > 16 | > 16 | 0.5 to 1 | 0.01 to 0.5 | 0.01 to 0.5 | 0.01 to 0.5 | 0.01 to 0.5 | 0.01 to 0.5 | 0.01 to 0.5
7 | CNCCOc1ccc(C(=O)NC(=O)C[C@@H]2NC(=O)[C@H](NC(=O)[C@@H](CC(C)C)NC)[C@H](O)c3ccc(c(Cl)c3)Oc3cc4cc(c3O[C@@H]3O[C@H](CO)[C@@H](O)[C@H](O)[C@H]3O)Oc3ccc(cc3Cl)[C@@H](O)[C@@H]3NC(=O)[C@H](NC(=O)[C@@H]4NC2=O)c2ccc(O)c(c2)-c2c(O)cc(O)cc2[C@@H](C(=O)NC2C4CC5CC(C4)CC2C5)NC3=O)cc1OCCNC (stereo partly drawn) [Compound 160] | 0.5 to 1 | 0.5 to 1 | 4 to 8 | > 16 | 1 to 2 | 0.01 to 0.5 | 1 to 2 | 1 to 2 | 0.01 to 0.5 | 0.01 to 0.5 | 0.5 to 1
8 | CNCCOc1cc(C(=O)NC(=O)C[C@@H]2NC(=O)[C@H](NC(=O)[C@@H](CC(C)C)NC)[C@H](O)c3ccc(c(Cl)c3)Oc3cc4cc(c3O[C@@H]3O[C@H](CO)[C@@H](O)[C@H](O)[C@H]3O)Oc3ccc(cc3Cl)[C@@H](O)[C@@H]3NC(=O)[C@H](NC(=O)[C@@H]4NC2=O)c2ccc(O)c(c2)-c2c(O)cc(O)cc2[C@@H](C(=O)NC2C4CC5CC(C4)CC2C5)NC3=O)cc(OCCNC)c1OCCNC (stereo partly drawn) [Compound 162] | 0.5 to 1 | 1 to 2 | 8 to 16 | > 16 | 2 to 4 | 0.01 to 0.5 | 2 to 4 | 1 to 2 | 0.5 to 1 | 0.01 to 0.5 | 1 to 2
9 | CCNCCOCc1cc(OCCNCC)cc(C(=O)NC(=O)C[C@@H]2NC(=O)[C@H](NC(=O)[C@@H](CC(C)C)NC)[C@H](O)c3ccc(c(Cl)c3)Oc3cc4cc(c3O[C@@H]3O[C@H](CO)[C@@H](O)[C@H](O)[C@H]3O[C@H]3C[C@](C)(N)[C@H](O)[C@H](C)O3)Oc3ccc(cc3Cl)[C@@H](O)[C@@H]3NC(=O)[C@H](NC(=O)[C@@H]4NC2=O)c2ccc(O)c(c2)-c2c(O)cc(O)cc2[C@@H](C(=O)NC2C4CC5CC(C4)CC2C5)NC3=O)c1 (stereo partly drawn) [Compound 164] | 0.01 to 0.5 | 0.01 to 0.5 | 8 to 16 | > 16 | 1 to 2 | 0.01 to 0.5 | 0.01 to 0.5 | 0.01 to 0.5 | 0.01 to 0.5 | 0.01 to 0.5 | 0.01 to 0.5
